The values that follow come from patent publication US20230128304A1, “BENZIMIDAZOLE COMPOUND FOR THE TREATMENT OF METABOLIC DISORDERS” (ACHÉ LABORATÓRIOS FARMACÊUTICOS S.A., priority 2020, published 2023).

Molecules are shown by their SMILES.

For test [1], the system named is SD rats maintained on a high fat diet (HFD). Description: Body weight and food intake in HFD diet-induced obesity model. As to conditions: for Daily food intake compared with HFD Vehicle: compound II apart from isolated changes. The class given is in vivo, Sprague Dawley (SD) rats. Here is the method: The benzimidazole compound of formula I, the comparative compound of formula II, and dapagliflozin were administered to animals fed HFD. Vehicle was administered to animals fed normal chow or HFD. Data is shown as adjusted means—SEM of n=9-10 animals (BW and BW gain) or n=5 cages (FI and average daily FI) per group. Data was analyzed by ANCOVA with BW on day 1 (A and C) or average FI during the baseline period (B and D) as covariate, excluding the Chow Vehicle group. Treatment groups were compared with HFD Vehicle by separate Williams' tests (compounds I or II) or multiple t tests (dapagliflozin) and considered statistically significant if p<0.05. Statistical significance is denoted as “a”, “b”, “c”, “d” and “e” for HFD groups treated respectively with dapagliflozin, compound II at 10 mg/kg, compound II at 30 mg/kg, compound I at 10 mg/kg and compound I at 30 mg/kg. # (p=0.051) and & (p=0.098) mean trends toward significance in comparisons with HFD Vehicle.
J Endocrinol. 234(3):255-267; Devenny J J et al. (2012). Weight loss induced by chronic dapagliflozin treatment is attenuated by compensatory hyperphagia in diet-induced obese (DIO) rats. Obesity. 20: 1645-1652.).
(§1) In the HFD model, animals were initially maintained on a HFD for 4 weeks to induce a significant body weight (BW) gain before treatment was initiated. […] Two vehicle-treated control groups, fed either normal chow (Chow Vehicle) or HFD (HFD Vehicle), were also included.

Test [2] has the same test system. Briefly: Body composition (FoodScan near-infrared analyzer) in HFD model. The class given is in vivo, Sprague Dawley (SD) rats. The following applies: for Fat / Final carcass weight / Protein / Water: adjusted means ± SEM; for Body composition parameters (water, protein, fat content, final carcass weight) against HFD Vehicle: 10 and 30 mg/kg. The method, then:
as §1
The effects on body composition and on the weight of selected tissues (brown fat pad, epididymal fat pad, liver or gastrocnemius muscle) were assessed after the study was terminated (days 65/66). The weights of tissues were analyzed in two ways: i) BW on day 1 was used as a covariate to correct for differences in the BW at the start of the study or ii) the terminal BW (days 65/66) was used as a covariate to correct for changes due to weight loss (Table 3). […] Body composition was determined using FoodScan™ near-infrared analyzer analysis, which assessed water, protein and fat content and the final carcass weight (Table 4).

Test [3] shares this test system. Description: Weight of selected tissues in HFD model. Format: in vivo, Sprague Dawley (SD) rats. The method, then:
In the HFD model, animals were initially maintained on a HFD for 4 weeks to induce a significant body weight (BW) gain before treatment was initiated. […] Two vehicle-treated control groups, fed either normal chow (Chow Vehicle) or HFD (HFD Vehicle), were also included. The effects on body composition and on the weight of selected tissues (brown fat pad, epididymal fat pad, liver or gastrocnemius muscle) were assessed after the study was terminated (days 65/66). […] Body composition was determined using FoodScan™ near-infrared analyzer analysis, which assessed water, protein and fat content and the final carcass weight (Table 4).

For test [4] the test system is unchanged. Description: Liver histopathology (NAFLD activity score) in HFD model. Format: in vivo, Sprague Dawley (SD) rats. Here is the method: (§2) The parameters were assessed following a chronic oral treatment with compound I at 10 and 30 mg/kg, dapagliflozin at 5 mg/kg, or vehicle to animals receiving HFD. Vehicle was also administered to animals receiving normal chow. The liver triglycerides were quantified using Cobas C111 clinical analyzer TRIGL 04657594 190. Glycogen quantification in liver samples was performed using commercial kits (Thermo BioVision, Glycogen Assay Kit, K646-100). Data is shown as means±SEM (A-D) or raw data including mean±SEM (E-H), n=9-10. The statistical analysis of liver triglycerides (A-B) and glycogen (C-D) was performed by general linear model of log transformed data (triglycerides only) with treatment and cohort as factors and termination order and BW on day 1 as covariates. Treatment groups were compared with HFD Vehicle by separate Williams' tests (compound I) or multiple t tests (dapagliflozin) and statistically significant differences are denoted by * (p<0.05), ** (p<0.01) and *** (p<0.001). Comparisons against Chow Vehicle were performed by multiple t tests (HFD Vehicle and dapagliflozin groups) or Dunnett's test (compound I) and statistically significant differences are denoted by † (p<0.05), †† (p<0.01) and ††† (p<0.001). Analysis of liver histopathology data (E-H) was done by exact Wilcoxon rank sum test. Statistical differences are denoted by * (p<0.05) in comparison with HFD Vehicle and by † (p<0.05), †† (p<0.01) and ††† (p<0.001) when compared with Chow Vehicle.
as §1
Liver was also assessed for NAFLD by histopathological analysis (FIGS. 3E-H). Samples were sectioned, stained and scored following a method previously described (Kleiner D E et al. (2005). Design and validation of a histological scoring system for nonalcoholic fatty liver disease. Hepatology. 41(6):1313-21; Nishida T et al. (2013). Spontaneous onset of nonalcoholic steatohepatitis and hepatocellular carcinoma in a mouse model of metabolic syndrome. Lab Invest. 93(2):230-41). The parameters analyzed were: steatosis (0-3), lobular inflammation (0-3) and hepatocellular ballooning (0-2). The total “NAFLD activity score” (NAS) score was calculated as the sum of all parameters (0-8). The liver of Chow Vehicle animals had no pathology scores (zero) for steatosis, lobular inflammation, hepatocellular ballooning and no score for total NAS.

For test [5] the test system is unchanged. Description: Plasma glucose, insulin and HOMA-IR in HFD model. The class given is in vivo, Sprague Dawley (SD) rats. The method, then:
Vehicle was administered to animals fed normal chow or HFD. The parameters were assessed on day 51. […] In the HFD model, animals were initially maintained on a HFD for 4 weeks to induce a significant body weight (BW) gain before treatment was initiated. […] Two vehicle-treated control groups, fed either normal chow (Chow Vehicle) or HFD (HFD Vehicle), were also included.

For test [6] the test system is unchanged. Description: Liver triglycerides and glycogen in HFD model. The class given is in vivo, Sprague Dawley (SD) rats. As to conditions: 5 mg/kg. The method, then:
as §2, with “Comparisons against Chow Vehicle were performed by multiple t tests (HFD Vehicle and dapagliflozin groups) or Dunnett's test (compound I) and statistically significant differences are denoted by † (p<0.05), †† (p<0.01) and ††† (p<0.001). Analysis of liver histopathology data (E-H) was done by exact Wilcoxon rank sum test. Statistical differences are denoted by * (p<0.05) in comparison with HFD Vehicle and by † (p<0.05), †† (p<0.01) and ††† (p<0.001) when compared with Chow Vehicle.” left out
As only the benzimidazole derivative of formula I according to the present invention, but not the comparative benzimidazole compound II, impacted BW gain, liver weight, plasma glucose levels and HOMA-IR in the HFD model, specific effects of compound I in the liver of the animals were evaluated in comparison with dapagliflozin and control groups. […]

The target in another test is MT1 receptor (Homo sapiens, UniProt P48039). Briefly: cell-based. The following applies: read-out: MT1 agonism I.A. (intrinsic activity).
The mark [7] stands for this setting: 10 mg/kg, data adjusted for BW on day 1, mean ± SEM, in g (unit assumed).
[8] abbreviates: 10 mg/kg, data adjusted for BW on day 65/66, mean ± SEM, in g (unit assumed).
The mark [9] stands for this setting: 30 mg/kg, data adjusted for BW on day 1, mean ± SEM, in g (unit assumed).
The mark [10] stands for this setting: 30 mg/kg, data adjusted for BW on day 65/66, mean ± SEM, in g (unit assumed).
Setting [11] is: 5 mg/kg p.o., day 51 after 4-hour fast, p<0.001.
[12] abbreviates: 5 mg/kg, data adjusted for BW on day 1, mean ± SEM, in g (unit assumed).
Setting [13] is: 5 mg/kg, data adjusted for BW on day 65/66, mean ± SEM, in g (unit assumed).

Sequence of MT1 receptor (P48039 whole entry): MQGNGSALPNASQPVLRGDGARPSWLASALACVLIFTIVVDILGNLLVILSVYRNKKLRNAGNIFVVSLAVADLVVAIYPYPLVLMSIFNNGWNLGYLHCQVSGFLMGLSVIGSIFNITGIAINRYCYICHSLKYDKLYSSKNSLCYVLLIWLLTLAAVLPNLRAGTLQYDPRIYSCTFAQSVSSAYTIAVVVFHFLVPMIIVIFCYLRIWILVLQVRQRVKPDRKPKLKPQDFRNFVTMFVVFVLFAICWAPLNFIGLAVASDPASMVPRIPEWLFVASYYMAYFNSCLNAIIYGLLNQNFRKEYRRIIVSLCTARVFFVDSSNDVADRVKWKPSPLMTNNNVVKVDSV

On to `COc1cc2c(cc1Cl)nc(OC)n2CCNC(C)=O` [Compound of formula I, N-[2-(5-Chloro-2,6-dimethoxy-benzoimidazol-1-yl)-ethyl]-acetamide], for which the “Body weight (BW) compared with HFD Vehicle” value in test [1] (10 and 30 mg/kg p.o., days 13 to 32, p<0.05) is “significantly reduced body weight (BW)”. Besides, the “BW gain from day 1 to 57 compared with HFD Vehicle” value in test [1] (10 and 30 mg/kg p.o., p=0.098) is reported as “trend towards reduced BW gain”. In addition, the “Daily food intake compared with HFD Vehicle” value in test [1] (10 and 30 mg/kg) was “did not affect”. Also, in test [2] (10 mg/kg), the Fat is on record as 20.5 ± 1.5 %, the Final carcass weight was 561.7 ± 13.0^ g, the Protein is listed as 19.7 ± 0.4% and the Water came out at 56.1 ± 1.2 %. In test [2] (30 mg/kg), the Fat is 20.0 ± 1.7 %, the Final carcass weight is 584.0 ± 13.6^ g, the Protein is recorded as 19.6 ± 0.5 % and the Water was determined as 56.5 ± 1.4 %. Further, the “Body composition parameters (water, protein, fat content, final carcass weight) against HFD Vehicle” value in test [2] is “No effect”. The Liver weight in test [3] (10 mg/kg, data adjusted for BW on day 1, mean ± SEM) is 17.7 ± 0.8. In test [3] (setting [7]), the “Brown adipose tissue weight” value amounted to 0.700 ± 0.091, the “Epididymal fat pads weight” value worked out at 13.1 ± 1.5 and the Gastrocnemius weight came to 3.30 ± 0.14. In addition, in test [3] (setting [8]), the “Brown adipose tissue weight” value was 0.719 ± 0.084, the “Epididymal fat pads weight” value is recorded as 13.9 ± 1.1, the Gastrocnemius weight came out at 3.32 ± 0.15 and the Liver weight was found to be 18.5 ± 0.5. Besides, the Liver weight in test [3] (30 mg/kg, data adjusted for BW on day 1, mean ± SEM) is listed as 18.6 ± 0.9. In test [3] (setting [9]), the “Brown adipose tissue weight” value is 0.801 ± 0.066, the “Epididymal fat pads weight” value was found to be 13.9 ± 1.0 and the Gastrocnemius weight was determined as 3.35 ± 0.10. Also, in test [3] (setting [10]), the “Brown adipose tissue weight” value is on record as 0.808 ± 0.062, the “Epididymal fat pads weight” value came out at 14.2 ± 1.2, the Gastrocnemius weight was 3.36 ± 0.10 and the Liver weight came to 18.9 ± 0.5. In test [3] (both groups (10 and 30 mg/kg), corrected by the initial BW, p=0.12), the “Liver weight compared to HFD Vehicle (in words)” value is on record as “trend toward liver weight reduction”. Also, the “Steatosis score change compared to the HFD group” value in test [4] (30 mg/kg p.o., p<0.05) is listed as −57%. In test [4] (30 mg/kg, p=0.126), the “Total NAS value versus HFD Vehicle” value was “trend toward significance”. The Lobular inflammation score entry in test [4] (30 mg/kg, no longer significantly different from the Chow Vehicle control) was “reduced”.
As to `CCOc1nc2cc(Cl)c(OC)cc2n1CCCNC(C)=O` [Compound of formula II, N-[3-(5-Chloro-2-ethoxy-6-methoxy-benzoimidazol-1-yl)-propyl]-acetamide], in test [5] (10 and 30 mg/kg, day 51), the “HOMA-IR compared to HFD Vehicle (in words)” value is reported as “did not alter”, the “Plasma glucose compared to HFD Vehicle (in words)” value was “did not alter” and the “Plasma insulin compared to HFD Vehicle (in words)” value is “did not alter”. In test [1] (10 and 30 mg/kg), the “Daily BW gain” value is “no significant effects” and the “Daily food intake compared with HFD Vehicle” value is on record as “did not affect”. Further, in test [2] (10 mg/kg), the Fat is 20.8 ± 2.3 %, the Final carcass weight worked out at 587.6 ± 6.3 g, the Protein is recorded as 19.2 ± 0.6 % and the Water was 56.0 ± 1.8 %. In addition, in test [2] (30 mg/kg), the Fat is on record as 17.9 ± 2.3 %, the Final carcass weight was determined as 593.3 ± 11.4 g, the Protein was found to be 19.8 ± 0.5% and the Water is 58.4 ± 1.9^ %. In test [2], the “Body composition parameters (water, protein, fat content, final carcass weight) against HFD Vehicle” value was “No effect”.
For `CCOc1ccc(Cc2cc([C@@H]3O[C@H](CO)[C@@H](O)[C@H](O)[C@H]3O)ccc2Cl)cc1` [Dapagliflozin], in test [5] (setting [11]), the “HOMA-IR change compared to HFD Vehicle” value is −66.7%, the “Plasma glucose change compared to HFD Vehicle” value is listed as −21.6% and the “Plasma insulin change compared to HFD Vehicle” value is reported as −56.7%. Moreover, in test [2] (5 mg/kg), the Fat is 16.8 ± 1.3^ %, the Final carcass weight amounted to 564.5 ± 9.4 g, the Protein is given as 20.6 ± 0.4% and the Water is reported as 58.9 ± 1.0^ %. For the same compound, in test [3] (setting [12]), the “Brown adipose tissue weight” value came out at 0.679 ± 0.047, the “Epididymal fat pads weight” value worked out at 12.2 ± 0.7, the Gastrocnemius weight is recorded as 3.34 ± 0.09 and the Liver weight was 20.9 ± 0.5. The compound further gave a Liver weight in test [3] (5 mg/kg, data adjusted for BW on day 65/66, mean ± SEM) of 21.6 ± 0.3. Further, in test [3] (setting [13]), the “Brown adipose tissue weight” value is 0.697 ± 0.050, the “Epididymal fat pads weight” value stood at 13.0 ± 0.7 and the Gastrocnemius weight is 3.37 ± 0.09. Besides, the “Liver weight change compared to HFD Vehicle” value in test [3] (5 mg/kg, data corrected for the terminal BW, p<0.01) is reported as “+10.8%”. Moreover, the “Histopathology parameters (steatosis, lobular inflammation, hepatocellular ballooning, NAS) versus HFD Vehicle” value in test [4] (5 mg/kg) is “no effect”. Also, in test [6], the “Liver glycogen concentration compared to HFD Vehicle (in words)” value is reported as “No effect” and the “Liver glycogen content compared to HFD Vehicle (in words)” value was “No effect”.
As to `COc1ccc2[nH]cc(CCNC(C)=O)c2c1` [Melatonin, N-acetyl-5-methoxytryptamine], the Emax at MT1 receptor was 100%.
